# Laboratory results reported in patent US11084790B2, “Insoluble complex or solvate thereof, pharmaceutical composition and use thereof” (Fruithy Holdings Limited, priority 2017, dated 2021).
# Counter-ions that a name gives are not always drawn.
# Test: Systemic pharmacokinetic study of a bis(bupivacaine) pamoate suspension after a single subcutaneous injection at three points in a hind limb in SD rats
# Type: in vivo
# Details: male, rat, sc, single subcutaneous injection at three points in left hind limb, 5 mg/kg, bupivacaine in blood
# Description: Systemic Pharmacokinetic Study of a bis(bupivacaine) pamoate Suspension After a Single Subcutaneously Injection at Three Points in a Hind Limb in SD Rats
# The systemic absorption and exposure of bis(bupivacaine) pamoate in a rat body was further evaluated by performing a systemic pharmacokinetic research on SD rats which were subcutaneously injected with a bis(bupivacaine) pamoate suspension (Formulation Example 3) once at three points in a left hind limb and comparing with a commercial bupivacaine hydrochloride injection. The long-acting sustained release feature of bis(bupivacaine) pamoate was verified by comparing the pharmacokinetic parameters of bis(bupivacaine) pamoate with a commercial formulation.
# In the example, 20 healthy SD male rats (Beijing Vital River Laboratory Animal Technology Co., Ltd., 190 to 210 g) were chosen and randomly divided into 2 groups, i.e., a group for Formulation Example 3 and a group for the commercial bupivacaine hydrochloride injection (Wuhu Kangqi Pharmaceutical Co., Ltd.) group, with 10 animals in each group.
# About 0.5 mL of venous blood was collected at 30 min, 1 h, 2 h, 6 h, 8 h, 24 h, 48 h, 72 h and 96 h respectively after administration for both groups of laboratory animals for determining the blood drug concentration of bupivacaine.
smiles,measurement,value
CCCCN1CCCCC1C(=O)Nc1c(C)cccc1C (stereo not shown) [bupivacaine hydrochloride],AUC(0-t),711 ng·h/mL
same,Cmax,330 ng/mL
same,Tmax,37.8 min
same,half-life,60 min
